According to PMC5449454, “Anti-Double-Stranded DNA IgG Participates in Renal Fibrosis through Suppressing the Suppressor of Cytokine Signaling 1 Signals” (Frontiers in Immunology, 2017):
Where no end group is shown, it is not given here.

What was measured:
[1] = test system: MRL/lpr mice; details: ref [28]; cited from earlier work
From the text: The JAK2/STAT1 pathway mediates the renal damage in lupus models induced by anti-dsDNA antibodies. […] Moreover, STAT1 deficiency in the lupus-like chronic graft-versus-host disease model led to a prolonged but amplified increase of anti-dsDNA IgG in sera and also higher proteinuria and mortality ([29]). This phenomenon might be du ...

[2] = test system: anti-dsDNA IgG; assay: MALDI-TOF MS, catalysis of peptide by anti-dsDNA IgG; set-up: species or system murine; details: peptide 2 µg/ml with IgG (molar ratio = 1:5), 37°C, 30 min, triplicate
Procedure: Matrix-assisted laser desorption/ionization–time of flight mass spectrometry was performed for identifying the sequences of peptide fragments. As described previously ([36]), an ABI 4800 Analyzer (AB Science, Foster City, CA, USA) was used for such analysis. The ALW (L-form or D-form) and KIR peptides (2 µg/ml) were mixed with anti-dsDNA IgG or control IgG (molar ratio = 1:5), respectively. The mixtures were incubated at 37°C for 30 min. Then, these samples were diluted in distilled water (1:100) and then mixed with the α-cyano-4-hydroxycinnamic acid matrix at a ratio of 1:1. Samples in triplicate were then loaded to the MALDI target. Mass spectrum was produced on 80 individual spectra of each spot.

[3] = biological target: T1, KIR peptide (SOCS1) (Mus musculus, UniProt O35716); assay: Surface plasmon resonance, JAK2 loop peptide over immobilized biotinylated KIR peptide; assay type: binding; details: SPR, JAK2 loop peptide 0–250 nM
T1 construct: The KIR of SOCS1 was synthesized as a 16-mer peptide (2.09 kDa); purchased Sangon Biotech Company (Shanghai, China); host or cells: chemical synthesis
Procedure: The Biacore 3000 instrument (Biacore, Piscataway, NJ, USA) was used for the quantitation of binding affinities ([8], [35]). For anti-dsDNA IgG binding to KIR peptide, anti-dsDNA IgG (10 nM in MES buffer) was immobilized on a CM sensor chip (GE Healthcare, Port Washington, NY, USA), and then KIR peptide (0–250 nM in HEPES buffer) was run on chip. For JAK2 loop peptide binding to KIR peptide, the biotinylated KIR peptide (5 nM) was immobilized on streptavidin-coated sensor chip, followed by injection of JAK2 loop peptide (0–250 nM). A simple Langmuir model (A + B ↔ AB) was used for calculating binding kinetics.

[4] = biological target: T2, biotinylated SOCS1 kinase inhibitory region (KIR) peptide (also: biotinylated (position not given here)); assay: SPR; Biacore 3000; biotinylated KIR peptide (5 nM) immobilised on a streptavidin-coated sensor chip, JAK2 loop peptide injected at 0-250 nM; simple Langmuir model (A + B ↔ AB); details: both partners purified
T2 construct: Captured by its biotin on streptavidin-coated sensor chips and plates; An unbiotinylated KIR peptide was run over the immobilised anti-dsDNA IgG only; also called SOCS1-KIR; biotinylated KIR peptide; source: synthetic peptide (Sangon Biotech Company)
T2 peptide: DTHFRTFRSHSDYRRI

[5] = biological target: T2, biotinylated SOCS1 kinase inhibitory …; assay: ELISA; inhibition ELISA; biotinylated KIR peptide (5 µg/ml) on streptavidin-coated 96-well plates; FITC-labeled JAK2 loop peptide (0.2 µg/ml) pre-incubated with serially diluted anti-dsDNA IgG (0.02 to 20 µg/ml) or control IgG; fluorescein intensity read; details: both partners purified

N#C/C(=C\c1ccc(O)c(O)c1)C(=O)NCc1ccccc1 [tyrphostin AG490]
glomerular deposition of anti-dsDNA IgG [1]: decrease | phosphorylation of JAK2 [1]: significantly inhibited | phosphorylation of STAT1 [1]: significantly inhibited | proteinuria [1]: decrease | renal histological lesions [1]: decrease | serum titer of anti-dsDNA IgG [1]: decrease

DTHFRTFRSHSDYRRI [KIR peptide]
catalysis of KIR peptide by anti-dsDNA IgG [2]: almost catalyzed by anti-dsDNA IgG

LPQDKEYYKVKEP [JAK2 loop peptide]
Kd ([3]; Biacore 3000, biotinylated KIR peptide (5 nM) immobilized on streptavidin chip, simple Langmuir model): 44.6 nM | kon ([3]; biotinylated KIR peptide immobilized, Langmuir model, read-out: Ka (association rate)): 13500 M⁻¹ s⁻¹ | koff ([3]; biotinylated KIR peptide immobilized, Langmuir model, read-out: Kd (dissociation rate)): 0.000603 s⁻¹

B1: JAK2 loop peptide (peptide)
peptide: LPQDKEYYKVKEP
notes: loop region of Janus kinase 2 (JAK2), 13-mer, 1.64 kDa; the SPR methods name the 'JAK2 loop peptide' without a label; source: synthetic peptide (Sangon Biotech Company)
Kd [4]: 44.6 nM | koff [4]: 0.000603 s⁻¹ | kon [4]: 13500 M⁻¹ s⁻¹

B2: FITC-labeled JAK2 loop peptide (peptide)
peptide: LPQDKEYYKVKEP
modifications: also: FITC-labeled (position not given here)
notes: loop region of Janus kinase 2 (JAK2), 13-mer; also called FITC–JAK2 loop; FITC (0.39 kDa)–JAK2 loop; source: synthetic peptide (Sangon Biotech Company)
binding result [5]: binds
